In patent US10059694B2, “2-aminopyrimidine compound and pharmaceutical composition and use thereof” (Shanghai Institute of Materia Medica, Chinese Academy of …, priority 2014, dated 2018) one finds IC50 data, which are given here for two molecules.

For experiment [1], the system named is human non-small cell lung cancer NCI-H1975 cell line. The experiment is described as follows: SRB proliferation assay, NCI-H1975 cells. The following applies: NCI-H1975, SRB, 72 h, read-out: IC50 NCI-H1975. The format is cell-based. The method, boiled down: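 NCI-H1975 cells in log phase were allowed to adhere for 24 h, then treated with compound in triplicate for 72 h. Cells were TCA-fixed and SRB-stained, with OD read at 515 nm; IC50 derived from growth inhibition versus DMSO control.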
In general terms: The SRB assay estimates cell density from bound dye.

The target of experiment [2] is T1, IGF-1R (Homo sapiens, UniProt P08069).
T1 construct: purchased Millipore
T1 sequence (P08069 31-1367): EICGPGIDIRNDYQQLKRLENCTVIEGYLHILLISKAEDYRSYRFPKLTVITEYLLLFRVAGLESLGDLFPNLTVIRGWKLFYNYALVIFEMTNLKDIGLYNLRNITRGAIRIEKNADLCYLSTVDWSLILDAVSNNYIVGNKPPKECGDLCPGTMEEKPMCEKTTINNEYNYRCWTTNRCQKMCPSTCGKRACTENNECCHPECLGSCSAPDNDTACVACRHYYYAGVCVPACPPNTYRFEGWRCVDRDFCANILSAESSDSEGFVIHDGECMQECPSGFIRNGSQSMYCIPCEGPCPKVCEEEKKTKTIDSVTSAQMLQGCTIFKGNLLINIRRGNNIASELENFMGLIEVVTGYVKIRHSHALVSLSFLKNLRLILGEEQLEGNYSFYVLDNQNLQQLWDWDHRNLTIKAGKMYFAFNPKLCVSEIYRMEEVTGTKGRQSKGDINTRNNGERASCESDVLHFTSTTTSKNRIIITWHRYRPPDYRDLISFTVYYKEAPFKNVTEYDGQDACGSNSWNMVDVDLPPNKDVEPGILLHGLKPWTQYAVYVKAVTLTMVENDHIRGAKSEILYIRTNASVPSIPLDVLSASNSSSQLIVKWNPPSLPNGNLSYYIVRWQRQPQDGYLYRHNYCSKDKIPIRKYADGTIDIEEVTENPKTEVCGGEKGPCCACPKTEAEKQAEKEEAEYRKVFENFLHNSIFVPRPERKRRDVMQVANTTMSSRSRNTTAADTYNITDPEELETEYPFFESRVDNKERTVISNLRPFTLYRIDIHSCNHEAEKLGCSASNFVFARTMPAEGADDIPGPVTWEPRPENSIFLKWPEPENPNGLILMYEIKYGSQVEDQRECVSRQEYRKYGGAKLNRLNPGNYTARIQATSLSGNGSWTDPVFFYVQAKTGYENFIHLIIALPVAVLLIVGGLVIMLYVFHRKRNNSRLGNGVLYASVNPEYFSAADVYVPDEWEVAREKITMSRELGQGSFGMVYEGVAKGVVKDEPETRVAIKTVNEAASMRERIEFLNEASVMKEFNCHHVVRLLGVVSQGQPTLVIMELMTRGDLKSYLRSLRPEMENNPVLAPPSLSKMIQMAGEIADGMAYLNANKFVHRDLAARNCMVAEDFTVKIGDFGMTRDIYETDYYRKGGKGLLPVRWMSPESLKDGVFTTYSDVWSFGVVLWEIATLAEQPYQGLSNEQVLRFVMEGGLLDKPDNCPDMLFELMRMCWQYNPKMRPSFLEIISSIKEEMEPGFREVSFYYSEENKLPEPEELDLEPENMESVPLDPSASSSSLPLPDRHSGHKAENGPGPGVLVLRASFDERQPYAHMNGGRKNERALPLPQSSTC
As to the kind of experiment: kinase inhibitory activity test (ELISA), IGF-1R. The following applies: ATP 5 μM, 1 hour at 37° C. It counts as biochemical. The method, boiled down:
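Poly(Glu,Tyr)4:1-coated plates; kinase reacted 1 h at 37 °C with 5 μM ATP (final) in HEPES pH 7.4 buffer with Mg2+/Mn2+. Phosphotyrosine detected by PY99 and HRP anti-mouse IgG with OPD at 490 nm; IC50 from four-parameter fit.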

Experiment [3] relates to human epidermal carcinoma A431 cell line. The experiment is described as follows: SRB proliferation assay, A431 cells. It counts as cell-based. The following applies: A-431, SRB, 72 h, read-out: IC50 A431. The method, boiled down: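 A431 cells in log phase are allowed to adhere for 24 h, then exposed to compound for 72 h in triplicate alongside DMSO controls. Cells are fixed with cold 10% TCA, stained with SRB, dye is solubilised in 10 mM Tris pH 10.5, and OD is read at 515 nm.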

In experiment [4] the target is T2, EGFR^T790M/L858R (Homo sapiens, UniProt P00533, L858R/T790M).
T2 construct: purchased Millipore
T2 sequence (P00533 25-1210 T790M/L858R): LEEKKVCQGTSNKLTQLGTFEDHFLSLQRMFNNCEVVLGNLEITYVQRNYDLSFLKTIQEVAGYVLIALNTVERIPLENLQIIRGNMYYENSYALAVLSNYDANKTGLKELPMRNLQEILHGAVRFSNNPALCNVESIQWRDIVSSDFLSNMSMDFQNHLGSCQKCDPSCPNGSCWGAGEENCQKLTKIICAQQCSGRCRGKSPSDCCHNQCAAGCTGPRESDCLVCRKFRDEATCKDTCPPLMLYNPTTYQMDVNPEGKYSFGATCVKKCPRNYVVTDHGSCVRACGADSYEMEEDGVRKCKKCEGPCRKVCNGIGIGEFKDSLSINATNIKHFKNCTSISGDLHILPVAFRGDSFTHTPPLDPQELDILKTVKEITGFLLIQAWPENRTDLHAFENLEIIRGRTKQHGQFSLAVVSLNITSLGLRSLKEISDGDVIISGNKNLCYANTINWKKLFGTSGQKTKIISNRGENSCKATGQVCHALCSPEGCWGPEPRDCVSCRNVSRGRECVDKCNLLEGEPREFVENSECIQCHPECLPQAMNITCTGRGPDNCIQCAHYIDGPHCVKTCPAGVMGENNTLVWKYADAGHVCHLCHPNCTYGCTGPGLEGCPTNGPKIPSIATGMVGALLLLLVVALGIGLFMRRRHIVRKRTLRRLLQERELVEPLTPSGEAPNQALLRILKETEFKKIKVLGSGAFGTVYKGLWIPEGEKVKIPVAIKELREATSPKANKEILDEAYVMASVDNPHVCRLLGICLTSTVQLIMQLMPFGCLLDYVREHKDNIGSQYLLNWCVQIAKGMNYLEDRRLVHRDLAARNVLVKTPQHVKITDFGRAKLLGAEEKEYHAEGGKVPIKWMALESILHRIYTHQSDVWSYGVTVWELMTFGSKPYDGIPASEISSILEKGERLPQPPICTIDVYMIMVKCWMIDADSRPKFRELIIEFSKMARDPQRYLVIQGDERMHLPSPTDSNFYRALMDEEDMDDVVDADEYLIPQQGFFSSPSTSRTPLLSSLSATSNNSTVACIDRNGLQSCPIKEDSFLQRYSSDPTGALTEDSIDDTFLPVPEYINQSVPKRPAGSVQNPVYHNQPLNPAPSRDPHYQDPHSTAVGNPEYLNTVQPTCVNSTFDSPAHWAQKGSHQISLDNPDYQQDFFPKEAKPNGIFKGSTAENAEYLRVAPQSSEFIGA
The experiment is described as follows: kinase inhibitory activity test (ELISA), EGFR^T790M/L858R. The following applies: ELISA, ATP 5 μM, 1 hour at 37° C. It counts as biochemical. In outline: (§1)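 ELISA on poly(Glu,Tyr)4:1-coated plates; kinase reaction with 5 μM ATP (final) in 50 mM HEPES pH 7.4, 50 mM MgCl2, 5 mM MnCl2, 0.2 mM Na3VO4, 1 mM DTT, 1 h at 37° C. Phosphotyrosine detected via PY99/HRP and OPD at 490 nm; IC50 by four-parameter fit.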
For orientation: An ELISA detects its analyte on a solid surface through an enzyme-linked reagent.

The target in experiment [5] is T3, EGFR^wt (Homo sapiens, UniProt P00533).
T3 construct: purchased Millipore
T3 sequence (P00533 25-1210): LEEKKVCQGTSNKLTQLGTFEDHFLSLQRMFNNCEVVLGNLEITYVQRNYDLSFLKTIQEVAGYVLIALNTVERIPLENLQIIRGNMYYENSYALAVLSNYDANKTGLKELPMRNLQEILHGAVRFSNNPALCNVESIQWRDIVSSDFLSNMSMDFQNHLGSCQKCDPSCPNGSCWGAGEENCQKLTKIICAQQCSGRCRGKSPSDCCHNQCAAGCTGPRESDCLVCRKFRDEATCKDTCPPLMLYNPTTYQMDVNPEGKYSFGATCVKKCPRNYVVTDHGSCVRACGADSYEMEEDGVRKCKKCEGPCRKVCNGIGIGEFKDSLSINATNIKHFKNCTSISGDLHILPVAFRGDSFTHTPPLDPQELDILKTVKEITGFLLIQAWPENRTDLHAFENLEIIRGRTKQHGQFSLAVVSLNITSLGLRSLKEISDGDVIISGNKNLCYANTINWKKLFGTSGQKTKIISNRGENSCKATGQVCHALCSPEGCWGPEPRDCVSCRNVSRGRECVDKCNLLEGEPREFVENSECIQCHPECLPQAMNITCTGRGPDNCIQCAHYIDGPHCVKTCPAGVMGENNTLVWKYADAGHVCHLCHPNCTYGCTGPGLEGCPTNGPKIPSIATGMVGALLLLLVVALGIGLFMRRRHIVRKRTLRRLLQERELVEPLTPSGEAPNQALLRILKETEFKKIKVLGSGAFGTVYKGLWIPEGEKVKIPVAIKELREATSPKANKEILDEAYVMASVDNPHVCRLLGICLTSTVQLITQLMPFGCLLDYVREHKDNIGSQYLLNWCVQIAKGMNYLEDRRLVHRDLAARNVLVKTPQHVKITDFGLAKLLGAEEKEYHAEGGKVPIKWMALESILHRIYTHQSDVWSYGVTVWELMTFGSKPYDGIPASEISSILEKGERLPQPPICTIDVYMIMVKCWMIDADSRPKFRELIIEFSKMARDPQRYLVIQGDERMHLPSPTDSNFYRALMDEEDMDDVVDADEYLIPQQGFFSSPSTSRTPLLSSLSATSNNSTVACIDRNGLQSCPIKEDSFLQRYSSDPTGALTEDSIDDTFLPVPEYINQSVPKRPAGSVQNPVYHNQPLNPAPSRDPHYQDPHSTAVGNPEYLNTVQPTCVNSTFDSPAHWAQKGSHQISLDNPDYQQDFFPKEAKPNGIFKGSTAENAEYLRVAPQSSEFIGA
The experiment is described as follows: kinase inhibitory activity test (ELISA), EGFR^WT. The format is biochemical. The following applies: ATP 5 μM, 1 hour at 37° C. The method, boiled down:
as §1

Usually IC50 stands for the concentration that gives 50% inhibition. Consider `Cc1ccc(Nc2ncc(Cl)c(Nc3ccc4ccccc4c3)n2)cc1NC(=O)/C=C/CN(C)C` [CCB145346, (E)-N-((5-((5-chloro-4-((naphthalen-2-yl)amino))pyrimidin-2-yl)amino)-2-methylphenyl)-4-(dimethylamino)-2-butenamide], for which the IC50 stood at 598 nM in experiment [1]; 200 nM in experiment [2]; 1040 nM in experiment [3]; 56.2 nM in experiment [4]; 1150 nM in experiment [5].

Turning to `C=CC(=O)Nc1cc(CN2CCCN(C)CC2)cc(Nc2ncc(Cl)c(Nc3ccc4ccccc4c3)n2)c1` [CCB120105, N-((3-((5-chloro-4-((naphthalen-2-yl)amino))pyrimidin-2-yl)amino)-5-((4-methylhomopiperazin-1-yl)methyl)phenyl)acrylamide], the IC50 in experiment [1] is 151 nM; in experiment [2], 77.3 nM; in experiment [3], 576 nM; in experiment [4] it was 1.2 nM; in experiment [5], 137 nM.
